Source: ChEMBL document CHEMBL1122602, “2-Acetylpyridine thiosemicarbazones. 8. Derivatives of 1-acetylisoquinoline as potential antimalarial agents” (1984)

Legend:
Format in all cases: functional
[1] = test system: Mus musculus; experiment: Antimalarial activity was assessed against Plasmodium berghei in mice (Mus musculus). Increase in mean survival time in days was reported, at 80 mg/kg dosage of the compound.
[2] = test system: Mus musculus; experiment: Antimalarial activity was assessed against Plasmodium berghei in mice (Mus musculus) at 160 mg/kg dosage of the compound; Cure
[3] = test system: Mus musculus; experiment: Increase in mean survival time in mice inoculated with Plasmodium berghei days was reported following 40 mg/kg.
[4] = test system: Mus musculus; experiment: Antimalarial activity was assessed against Plasmodium berghei in mice (Mus musculus) at 80 mg/kg dosage of the compound; Cure
[5] = test system: Mus musculus; experiment: Antimalarial activity was assessed against Plasmodium berghei in mice (Mus musculus) at 320 mg/kg dosage of the compound; Cure
[6] = test system: Mus musculus; experiment: Antimalarial activity was assessed against Plasmodium berghei in mice (Mus musculus) at 640 mg/kg dosage of the compound; Cure
[7] = test system: Mus musculus; experiment: Antimalarial activity was assessed against Plasmodium berghei in mice (Mus musculus) at 40 mg/kg dosage of the compound; Cure
[8] = test system: Mus musculus; experiment: Antimalarial activity was assessed against Plasmodium berghei in mice (Mus musculus). Increase in mean survival time in days was reported at 320 mg/kg dosage of the compound.
[9] = test system: Mus musculus; experiment: Antimalarial activity was assessed against Plasmodium berghei in mice (Mus musculus). Increase in mean survival time in days was reported at 160 mg/kg dosage of the compound.
[10] = test system: Mus musculus; experiment: Antimalarial mice (Mus musculus) at 320 mg/kg dosage of the compound; Cure
[11] = test system: Mus musculus; experiment: Antimalarial activity was assessed against Plasmodium berghei in mice (Mus musculus). Increase in mean survival time in days was reported at 640 mg/kg dosage of the compound.

Structure (SMILES) | Increase in mean survival time [1] [days] | No. of cures [2] [count] | Increase in mean survival time [3] [days] | No. of cures [4] | No. of cures [5] [count] | No. of cures [6] | No. of cures [7] [count] | Mean survival time [8] [days] | Mean survival time [9] [days] | No. of cures [10] [count] | Mean survival time [11] [days]
CC1CCN(/C(S)=N/NC(C)c2nccc3ccccc23)CC1 (stereo not given) | 8.9 | 3 | 7.6 |  |  |  |  |  |  |  | 
C/C(=N\N=C(/S)N1CCC(C)CC1)c1nccc2ccccc12 |  | 2 | 1 | 1 count |  |  |  |  |  |  | 
CC1CN(/C(S)=N/NC(C)c2nccc3ccccc23)CC(C)O1 (stereo not given) | 5.7 | 2 | 5.9 |  | 3 | 2 |  |  |  |  | 
C/C(=N\N=C(/S)N1CC(C)OC(C)C1)c1nccc2ccccc12 (stereo not given) | 8.6 | 3 | 3.5 |  | 3 | 1 |  |  |  |  | 
C/C(=N\N=C(/S)N1CC2CCC(CC2)C1)c1nccc2ccccc12 |  | 5 |  | 3 count | 5 | 5 | 2 |  |  |  | 
CC(N/N=C(\S)N1CC2CCC(CC2)C1)c1nccc2ccccc12 (stereo not given) |  | 5 | 9.7 | 1 count | 4 | 3 |  |  |  |  | 
CC(N/N=C(\S)N(C)C)c1nccc2ccccc12 (stereo not given) |  | 2 | 6.2 |  |  |  |  |  |  |  | 
CC(N/N=C(\S)N1CCN(c2ccccn2)CC1)c1nccc2ccccc12 (stereo not given) | 2.7 |  | 1.6 |  |  | 3 |  | 7.7 | 6.6 |  | 
C/C(=N\N=C(/S)N(C)C1CCCCC1)c1nccc2ccccc12 | 7.9 | 3 | 9.5 |  | 3 |  |  |  |  |  | 
CC(N/N=C(\S)N(C)C1CCCCC1)c1nccc2ccccc12 (stereo not given) |  | 2 |  | 3 count | 1 | 1 | 2 |  |  |  | 
CC(N/N=C(\S)N1CCCCCC1)c1nccc2ccccc12 (stereo not given) | 7.1 | 3 | 5.1 |  |  | 2 |  |  |  | 2 | 
C/C(=N\N=C(/S)N1CCCC1)c1nccc2ccccc12 | 2 | 2 | 3.5 |  | 2 |  |  |  |  |  | 
C/C(=N\N=C(/S)NCc1ccccc1)c1nccc2ccccc12 |  |  | 0.1 |  |  |  |  |  | 0.9 |  | 0.5
C/C(=N\N=C(/S)N1CCC(c2ccccc2)CC1)c1nccc2ccccc12 | 5.7 | 1 | 2.7 |  | 1 | 4 |  |  |  |  | 
C/C(=N\N=C(/S)N(C)C)c1nccc2ccccc12 |  |  | 7.3 | 1 |  |  |  |  | 9.2 |  | 
CC(N/N=C(\S)NCc1ccccc1)c1nccc2ccccc12 (stereo not given) |  |  | 0.3 |  |  |  |  |  | 0.9 |  | 0.1
C/C(=N\N=C(/S)N1CCCCCC1)c1nccc2ccccc12 | 6.9 | 1 | 7.8 |  | 2 | 1 |  |  |  |  | 
CC(N/N=C(\S)N1CCC(c2ccccc2)CC1)c1nccc2ccccc12 (stereo not given) | 1 | 2 | 1.6 |  | 1 | 4 |  |  |  |  | 
CC(N/N=C(\S)N1CCCC1)c1nccc2ccccc12 (stereo not given) | 7.1 | 3 | 5.1 |  | 3 | 1 |  |  |  |  | 
